Measured values reported in paper PMC10539439 (Pharmacological Reports, 2023).

How the values were obtained:
[1] = Blood pressure of anaesthetized normotensive rats; assay type: in vivo, rat; settings: thiopental-anaesthetized rats
Method: Eighteen normotensive rats were anaesthetized with thiopental (70 mg/kg) by ip injection. The left carotid artery was cannulated with tubing filled with heparin solution in saline to facilitate pressure measurements using Apparatus PowerLab 4/35 (ADInstruments, Australia). Blood pressure was measured: before ip administration of 4-OH-Guanabenz at the doses of 2 or 5 or 10 mg/kg b.w. or water – time 0 min (control pressure) and continuously during the next 60 min.

[2] = Blood pressure, 24-h telemetric method, normotensive rats; assay type: in vivo, rat; settings: telemetry, 5 mg/kg b.w., first 15 or 15 and 30 min after 1st, 7th and 14th administration, vs control
Method: The blood pressure of rats treated with the tested compound was measured for a 24 h period after ip treatment (5 mg/kg b.w.) with a special telemetric system Stellar (TSE-Systems, Germany).
Surgery: The operation was carried out over 30 min under sterile conditions. Rats were anaesthetized with ketamine and xylasine (intramuscular injection: 100 mg/kg and 10 mg/kg). Before surgery and for 7 days after, the animals were also treated with cefuroxime (20 mg/kg/day) via intramuscular injection and ketoprofen (5 mg/kg/day) via ip injection. […] The transmitter was sutured to the peritoneal cavity.
The rats were individually caged for 2 weeks to heal after surgical cut. The animals were then placed in pairs in cages to reduce their isolation stress. Blood pressure was measured: before ip administration of the compounds – time 0 min and 24 h thereafter.

Compound: Cl.N=C(N)NN=Cc1c(Cl)cc(O)cc1Cl [4-OH-Guanabenz, 2-[(2,6-Dichloro-4-hydroxyphenyl)methylene]hydrazinecarboximidamide Hydrochloride]
- effect on diastolic pressure (in words) ([1]; 10 mg/kg b.w., 10th minute after administration): short-term increase
- effect on blood pressure (in words) ([1]; single dose 2 or 5 mg/kg b.w., vs water): not significantly different
- effect on systolic and diastolic blood pressure (in words) [2]: significantly higher
